Results published in patent US20260070903A1, “NOVEL PYRIDO[3,4-D]PYRIMIDIN-8-ONE DERIVATIVE HAVING PROTEIN KINASE INHIBITORY ACTIVITY, AND PHARMACEUTICAL COMPOSITION FOR PREVENTING, ALLEVIATING, OR TREATING CANCER, COMPRISING SAME” (KOREA INSTITUTE OF SCIENCE AND TECHNOLOGY, priority 2019, published 2026).

Columns and labels:
[1] = target: T1, GCK (Homo sapiens, UniProt Q12851); assay: Inhibitory activity against GCK kinase (IC50); assay type: biochemical
T1 sequence (Q12851 1-820): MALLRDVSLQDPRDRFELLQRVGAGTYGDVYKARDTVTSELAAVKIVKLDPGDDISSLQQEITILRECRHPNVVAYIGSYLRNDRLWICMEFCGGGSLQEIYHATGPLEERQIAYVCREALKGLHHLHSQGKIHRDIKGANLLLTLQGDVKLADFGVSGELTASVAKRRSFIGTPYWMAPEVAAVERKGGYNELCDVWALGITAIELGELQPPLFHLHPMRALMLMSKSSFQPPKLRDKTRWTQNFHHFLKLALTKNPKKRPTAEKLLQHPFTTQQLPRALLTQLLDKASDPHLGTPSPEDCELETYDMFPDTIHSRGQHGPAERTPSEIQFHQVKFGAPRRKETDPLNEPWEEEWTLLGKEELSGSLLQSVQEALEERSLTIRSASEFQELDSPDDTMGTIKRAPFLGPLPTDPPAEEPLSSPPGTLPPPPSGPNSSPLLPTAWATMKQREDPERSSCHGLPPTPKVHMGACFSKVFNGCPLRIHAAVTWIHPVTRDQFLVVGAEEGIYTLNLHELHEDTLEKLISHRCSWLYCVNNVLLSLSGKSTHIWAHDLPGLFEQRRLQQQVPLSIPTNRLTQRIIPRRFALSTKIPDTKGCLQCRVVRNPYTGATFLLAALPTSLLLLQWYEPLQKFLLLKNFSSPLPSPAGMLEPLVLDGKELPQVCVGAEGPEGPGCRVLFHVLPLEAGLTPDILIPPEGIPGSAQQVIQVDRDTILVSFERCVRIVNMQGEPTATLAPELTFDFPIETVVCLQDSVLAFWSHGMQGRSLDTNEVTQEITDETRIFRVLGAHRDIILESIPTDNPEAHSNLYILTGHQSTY
Procedure: The inhibitory activities of the compounds of the present disclosure against two kinases, GCK and ACK1, were measured, and the IC50 values thereof were calculated.

[2] = target: DDR1 (Homo sapiens, UniProt Q08345); assay: Kinase panel biochemical assay, DDR1; details: single concentration of 1 μM, read-out: percent inhibition of kinase
Procedure: (§1) As a test compound, Compound No. 55 was used. The percent inhibition of each kinase when treated with the test compound at a single concentration of 1 μM was measured, and the residual enzyme activity values (%) of the kinases were calculated. Kinases whose calculated residual enzyme activity values (%) was 30% or less (i.e., kinases inhibited by 70% or more) are as follows: […]

[3] = target: EPHB2 (Homo sapiens, UniProt P29323); assay: Kinase panel biochemical assay, EPHB2; details: single concentration of 1 μM, read-out: percent inhibition of kinase
Procedure: as §1

[4] = target: DDR2 (Homo sapiens, UniProt Q16832); assay: Kinase panel biochemical assay, DDR2; details: single concentration of 1 μM, read-out: percent inhibition of kinase
Procedure: as §1

[5] = target: BLK (Homo sapiens, UniProt P51451); assay: Kinase panel biochemical assay, BLK; details: single concentration of 1 μM, read-out: percent inhibition of kinase
Procedure: as §1

[6] = target: TYK2 (Homo sapiens, UniProt P29597); assay: Kinase panel biochemical assay, TYK2; details: single concentration of 1 μM, read-out: percent inhibition of kinase
Procedure: as §1

[7] = target: FMS (Homo sapiens, UniProt P07333); assay: Kinase panel biochemical assay, FMS; details: single concentration of 1 μM, read-out: percent inhibition of kinase
Procedure: as §1

[8] = target: FGFR4 (Homo sapiens, UniProt P22455); assay: Kinase panel biochemical assay, FGFR4; details: single concentration of 1 μM, read-out: percent inhibition of kinase
Procedure: as §1

[9] = target: PDGFRb (Homo sapiens, UniProt P09619); assay: Kinase panel biochemical assay, PDGFRb; details: single concentration of 1 μM, read-out: percent inhibition of kinase
Procedure: as §1

[10] = target: LYN (Homo sapiens, UniProt P07948); assay: Kinase panel biochemical assay, LYN; details: single concentration of 1 μM, read-out: percent inhibition of kinase
Procedure: as §1

[11] = target: EPHA4 (Homo sapiens, UniProt P54764); assay: Kinase panel biochemical assay, EPHA4; details: single concentration of 1 μM, read-out: percent inhibition of kinase
Procedure: as §1

[12] = target: TIE2 (Homo sapiens, UniProt Q02763); assay: Kinase panel biochemical assay, TIE2; details: single concentration of 1 μM, read-out: percent inhibition of kinase
Procedure: as §1

[13] = target: JAK2 (Homo sapiens, UniProt O60674); assay: Kinase panel biochemical assay, JAK2; details: single concentration of 1 μM, read-out: percent inhibition of kinase
Procedure: as §1

[14] = target: EPHA3 (Homo sapiens, UniProt P29320); assay: Kinase panel biochemical assay, EPHA3; details: single concentration of 1 μM, read-out: percent inhibition of kinase
Procedure: as §1

[15] = target: LYNB (Homo sapiens, UniProt P07948); assay: Kinase panel biochemical assay, LYNB; details: single concentration of 1 μM, read-out: percent inhibition of kinase
Procedure: as §1

[16] = target: KDR (Homo sapiens, UniProt P35968); assay: Kinase panel biochemical assay, KDR; details: single concentration of 1 μM, read-out: percent inhibition of kinase
Procedure: as §1

[17] = target: BRK (Homo sapiens, UniProt Q13882); assay: Kinase panel biochemical assay, BRK; details: single concentration of 1 μM, read-out: percent inhibition of kinase
Procedure: as §1

[18] = target: EPHA5 (Homo sapiens, UniProt P54756); assay: Kinase panel biochemical assay, EPHA5; details: single concentration of 1 μM, read-out: percent inhibition of kinase
Procedure: as §1

[19] = target: ABL2 (Homo sapiens, UniProt P42684); assay: Kinase panel biochemical assay, ABL2; details: single concentration of 1 μM, read-out: percent inhibition of kinase
Procedure: as §1

[20] = target: TAOK2 (Homo sapiens, UniProt Q9UL54); assay: Kinase panel biochemical assay, TAOK2; details: single concentration of 1 μM, read-out: percent inhibition of kinase
Procedure: as §1

[21] = target: BMX (Homo sapiens, UniProt P51813); assay: Kinase panel biochemical assay, BMX; details: single concentration of 1 μM, read-out: percent inhibition of kinase
Procedure: as §1

[22] = target: CSK (Homo sapiens, UniProt P41240); assay: Kinase panel biochemical assay, CSK; details: single concentration of 1 μM, read-out: percent inhibition of kinase
Procedure: as §1

[23] = target: PDGFRa (Homo sapiens, UniProt P16234); assay: Kinase panel biochemical assay, PDGFRa; details: single concentration of 1 μM, read-out: percent inhibition of kinase
Procedure: as §1

[24] = target: HCK (Homo sapiens, UniProt P08631); assay: Kinase panel biochemical assay, HCK; details: single concentration of 1 μM, read-out: percent inhibition of kinase
Procedure: as §1

[25] = target: FLT4 (Homo sapiens, UniProt P35916); assay: Kinase panel biochemical assay, FLT4; details: single concentration of 1 μM, read-out: percent inhibition of kinase
Procedure: as §1

[26] = target: EPHA6 (Homo sapiens, UniProt Q9UF33); assay: Kinase panel biochemical assay, EPHA6; details: single concentration of 1 μM, read-out: percent inhibition of kinase
Procedure: as §1

[27] = target: ARAF (Homo sapiens, UniProt P10398); assay: Kinase panel biochemical assay, ARAF; details: single concentration of 1 μM, read-out: percent inhibition of kinase
Procedure: as §1

[28] = target: RAF1 (Homo sapiens, UniProt P04049); assay: Kinase panel biochemical assay, RAF1; details: single concentration of 1 μM, read-out: percent inhibition of kinase
Procedure: as §1

[29] = target: p38b (Homo sapiens, UniProt Q15759); assay: Kinase panel biochemical assay, p38b; details: single concentration of 1 μM, read-out: percent inhibition of kinase
Procedure: as §1

[30] = target: EPHA8 (Homo sapiens, UniProt P29322); assay: Kinase panel biochemical assay, EPHA8; details: single concentration of 1 μM, read-out: percent inhibition of kinase
Procedure: as §1

Chain of TIE2 (Q02763 23-1124): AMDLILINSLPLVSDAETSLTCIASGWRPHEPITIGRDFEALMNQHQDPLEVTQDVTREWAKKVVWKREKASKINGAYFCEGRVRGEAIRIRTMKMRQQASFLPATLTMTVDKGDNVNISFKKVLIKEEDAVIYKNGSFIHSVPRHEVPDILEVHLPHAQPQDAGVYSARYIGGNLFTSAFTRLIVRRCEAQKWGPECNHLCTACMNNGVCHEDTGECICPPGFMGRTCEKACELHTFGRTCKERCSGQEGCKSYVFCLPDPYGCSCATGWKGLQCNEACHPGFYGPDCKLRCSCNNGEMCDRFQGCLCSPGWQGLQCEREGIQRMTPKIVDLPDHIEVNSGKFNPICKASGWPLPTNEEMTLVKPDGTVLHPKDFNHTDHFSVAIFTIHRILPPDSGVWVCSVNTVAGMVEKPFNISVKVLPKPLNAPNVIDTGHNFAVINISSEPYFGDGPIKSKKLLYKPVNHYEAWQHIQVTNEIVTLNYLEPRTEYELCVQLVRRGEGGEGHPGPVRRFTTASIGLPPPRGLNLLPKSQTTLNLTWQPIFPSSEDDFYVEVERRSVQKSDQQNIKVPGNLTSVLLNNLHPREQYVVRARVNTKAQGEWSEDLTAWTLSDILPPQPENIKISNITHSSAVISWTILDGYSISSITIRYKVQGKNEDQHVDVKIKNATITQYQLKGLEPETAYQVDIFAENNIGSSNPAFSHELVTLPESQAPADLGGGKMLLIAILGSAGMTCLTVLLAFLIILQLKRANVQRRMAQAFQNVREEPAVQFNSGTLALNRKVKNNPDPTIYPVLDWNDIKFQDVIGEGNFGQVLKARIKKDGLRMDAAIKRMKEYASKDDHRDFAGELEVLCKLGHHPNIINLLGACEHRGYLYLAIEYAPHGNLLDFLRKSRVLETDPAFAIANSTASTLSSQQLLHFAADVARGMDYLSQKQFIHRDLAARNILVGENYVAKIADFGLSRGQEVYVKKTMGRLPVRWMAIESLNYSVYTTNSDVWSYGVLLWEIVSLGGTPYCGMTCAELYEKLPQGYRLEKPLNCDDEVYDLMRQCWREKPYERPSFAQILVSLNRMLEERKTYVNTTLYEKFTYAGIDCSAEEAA
Chain of ARAF (P10398 whole entry): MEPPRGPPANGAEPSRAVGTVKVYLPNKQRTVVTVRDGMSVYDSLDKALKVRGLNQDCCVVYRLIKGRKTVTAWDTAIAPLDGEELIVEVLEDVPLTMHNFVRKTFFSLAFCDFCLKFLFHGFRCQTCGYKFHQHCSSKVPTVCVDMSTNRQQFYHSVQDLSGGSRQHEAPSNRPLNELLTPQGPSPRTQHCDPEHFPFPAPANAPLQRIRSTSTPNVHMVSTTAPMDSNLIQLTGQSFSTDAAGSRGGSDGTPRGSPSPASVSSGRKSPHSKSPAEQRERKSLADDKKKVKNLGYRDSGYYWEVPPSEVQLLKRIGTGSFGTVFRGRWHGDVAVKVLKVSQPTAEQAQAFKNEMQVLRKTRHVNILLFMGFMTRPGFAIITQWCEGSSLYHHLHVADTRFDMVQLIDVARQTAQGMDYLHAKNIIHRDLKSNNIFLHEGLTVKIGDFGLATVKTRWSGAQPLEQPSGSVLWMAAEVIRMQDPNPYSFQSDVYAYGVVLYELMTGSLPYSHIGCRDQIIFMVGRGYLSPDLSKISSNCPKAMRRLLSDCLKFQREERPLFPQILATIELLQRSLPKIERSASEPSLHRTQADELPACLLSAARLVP
Chain of FLT4 (P35916 25-1363): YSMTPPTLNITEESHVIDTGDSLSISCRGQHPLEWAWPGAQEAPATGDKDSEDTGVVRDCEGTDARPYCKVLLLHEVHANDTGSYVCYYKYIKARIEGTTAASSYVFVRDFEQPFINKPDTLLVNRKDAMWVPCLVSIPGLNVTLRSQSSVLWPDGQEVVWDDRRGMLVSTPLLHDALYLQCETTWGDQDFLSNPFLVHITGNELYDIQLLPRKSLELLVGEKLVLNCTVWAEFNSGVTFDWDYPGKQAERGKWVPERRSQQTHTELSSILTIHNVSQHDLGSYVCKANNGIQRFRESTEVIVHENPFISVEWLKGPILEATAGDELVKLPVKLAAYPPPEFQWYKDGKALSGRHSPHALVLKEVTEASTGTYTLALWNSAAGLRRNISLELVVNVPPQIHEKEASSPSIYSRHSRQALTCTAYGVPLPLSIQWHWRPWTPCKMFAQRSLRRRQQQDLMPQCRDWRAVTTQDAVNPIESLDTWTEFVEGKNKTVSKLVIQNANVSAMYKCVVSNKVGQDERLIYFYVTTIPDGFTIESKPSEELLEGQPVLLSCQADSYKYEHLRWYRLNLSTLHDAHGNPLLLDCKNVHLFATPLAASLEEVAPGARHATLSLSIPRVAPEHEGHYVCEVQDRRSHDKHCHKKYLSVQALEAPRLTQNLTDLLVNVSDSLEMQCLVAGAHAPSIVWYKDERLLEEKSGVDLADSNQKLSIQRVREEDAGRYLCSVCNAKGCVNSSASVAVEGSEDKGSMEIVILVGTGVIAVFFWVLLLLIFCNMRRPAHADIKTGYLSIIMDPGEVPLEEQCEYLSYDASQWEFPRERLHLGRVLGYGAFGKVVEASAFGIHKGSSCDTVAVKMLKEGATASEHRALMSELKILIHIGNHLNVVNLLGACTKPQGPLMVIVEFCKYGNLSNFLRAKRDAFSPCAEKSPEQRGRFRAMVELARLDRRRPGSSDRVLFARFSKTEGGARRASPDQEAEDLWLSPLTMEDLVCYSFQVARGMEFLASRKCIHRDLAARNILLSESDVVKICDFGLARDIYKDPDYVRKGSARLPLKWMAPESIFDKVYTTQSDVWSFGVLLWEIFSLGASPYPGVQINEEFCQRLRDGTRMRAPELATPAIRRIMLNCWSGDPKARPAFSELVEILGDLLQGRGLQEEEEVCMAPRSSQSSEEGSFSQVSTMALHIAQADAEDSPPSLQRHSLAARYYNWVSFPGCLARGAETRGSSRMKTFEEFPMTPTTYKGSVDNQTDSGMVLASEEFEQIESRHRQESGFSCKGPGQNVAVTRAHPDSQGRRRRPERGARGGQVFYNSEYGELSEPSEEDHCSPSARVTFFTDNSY
Chain of ABL2 (P42684 whole entry): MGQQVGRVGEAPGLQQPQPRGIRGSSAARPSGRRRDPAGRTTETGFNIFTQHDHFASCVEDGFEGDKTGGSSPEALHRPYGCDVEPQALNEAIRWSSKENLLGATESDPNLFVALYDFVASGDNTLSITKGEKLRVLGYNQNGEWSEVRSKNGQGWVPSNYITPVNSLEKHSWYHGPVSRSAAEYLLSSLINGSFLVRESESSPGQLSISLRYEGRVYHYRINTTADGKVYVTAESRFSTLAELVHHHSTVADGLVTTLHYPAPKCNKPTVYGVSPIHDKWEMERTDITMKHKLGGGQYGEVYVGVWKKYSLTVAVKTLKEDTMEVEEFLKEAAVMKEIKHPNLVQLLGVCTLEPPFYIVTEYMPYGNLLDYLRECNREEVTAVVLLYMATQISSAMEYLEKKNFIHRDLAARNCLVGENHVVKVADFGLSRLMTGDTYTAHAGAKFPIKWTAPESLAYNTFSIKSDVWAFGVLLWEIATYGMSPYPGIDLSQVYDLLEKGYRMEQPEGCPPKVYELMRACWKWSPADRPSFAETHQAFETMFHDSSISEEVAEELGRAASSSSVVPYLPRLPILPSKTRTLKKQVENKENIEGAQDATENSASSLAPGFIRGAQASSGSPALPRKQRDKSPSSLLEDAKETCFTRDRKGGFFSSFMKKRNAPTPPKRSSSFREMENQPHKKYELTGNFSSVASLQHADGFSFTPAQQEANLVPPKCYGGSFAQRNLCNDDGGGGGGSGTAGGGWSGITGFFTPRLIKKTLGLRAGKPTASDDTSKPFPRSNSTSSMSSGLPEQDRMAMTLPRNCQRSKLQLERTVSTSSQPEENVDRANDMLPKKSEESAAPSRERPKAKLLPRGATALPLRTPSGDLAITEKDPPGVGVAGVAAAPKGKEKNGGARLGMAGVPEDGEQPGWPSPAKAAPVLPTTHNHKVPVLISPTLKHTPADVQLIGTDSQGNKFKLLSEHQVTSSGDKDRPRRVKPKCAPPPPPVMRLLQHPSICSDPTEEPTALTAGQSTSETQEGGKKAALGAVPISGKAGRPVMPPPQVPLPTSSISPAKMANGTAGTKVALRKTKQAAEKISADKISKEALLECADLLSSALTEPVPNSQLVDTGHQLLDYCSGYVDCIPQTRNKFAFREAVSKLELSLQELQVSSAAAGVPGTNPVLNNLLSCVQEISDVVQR
Chain of FGFR4 (P22455 22-802): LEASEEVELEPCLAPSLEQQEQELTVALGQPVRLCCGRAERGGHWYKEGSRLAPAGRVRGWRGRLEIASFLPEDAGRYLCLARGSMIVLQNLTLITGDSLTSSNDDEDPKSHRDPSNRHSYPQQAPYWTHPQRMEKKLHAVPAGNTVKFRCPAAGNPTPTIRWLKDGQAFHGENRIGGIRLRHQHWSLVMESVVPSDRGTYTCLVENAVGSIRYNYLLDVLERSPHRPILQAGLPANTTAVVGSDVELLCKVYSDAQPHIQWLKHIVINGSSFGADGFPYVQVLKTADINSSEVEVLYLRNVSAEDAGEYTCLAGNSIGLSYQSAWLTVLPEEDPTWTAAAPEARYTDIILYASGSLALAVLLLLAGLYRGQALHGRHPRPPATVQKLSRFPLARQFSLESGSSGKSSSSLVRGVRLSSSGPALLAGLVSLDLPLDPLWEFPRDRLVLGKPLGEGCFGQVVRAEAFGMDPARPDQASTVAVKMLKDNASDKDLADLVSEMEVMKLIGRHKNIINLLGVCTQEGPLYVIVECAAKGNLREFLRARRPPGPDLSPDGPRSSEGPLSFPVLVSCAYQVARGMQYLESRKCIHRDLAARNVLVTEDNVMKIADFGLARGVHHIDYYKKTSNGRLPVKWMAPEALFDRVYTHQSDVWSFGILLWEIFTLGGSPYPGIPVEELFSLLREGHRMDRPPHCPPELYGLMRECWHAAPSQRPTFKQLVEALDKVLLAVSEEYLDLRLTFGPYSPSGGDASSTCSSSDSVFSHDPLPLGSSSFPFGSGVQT

Cc1ccc(NC(=O)c2cccc(C(F)(F)F)c2)cc1-c1cc2cnc(N)nc2c(=O)[nH]1 [Compound No. 55, N-(3-(2-amino-8-oxo-7,8-dihydropyrido[3,4-d]pyrimidin-6-yl)-4-methylphenyl)-3-(trifluoromethyl)benzamide]
IC50 [1]: 1 to 10 µM | inhibition at 1 µM [2]: ≥ 70% | inhibition at 1 µM [3]: ≥ 70% | inhibition at 1 µM [4]: ≥ 70% | inhibition at 1 µM [5]: ≥ 70% | inhibition at 1 µM [6]: ≥ 70% | inhibition at 1 µM [7]: ≥ 70% | inhibition at 1 µM [8]: ≥ 70% | inhibition at 1 µM [9]: ≥ 70% | inhibition at 1 µM [10]: ≥ 70% | inhibition at 1 µM [11]: ≥ 70% | inhibition at 1 µM [12]: ≥ 70% | inhibition at 1 µM [13]: ≥ 70% | inhibition at 1 µM [14]: ≥ 70% | inhibition at 1 µM [15]: ≥ 70% | inhibition at 1 µM [16]: ≥ 70% | inhibition at 1 µM [17]: ≥ 70% | inhibition at 1 µM [18]: ≥ 70% | inhibition at 1 µM [19]: ≥ 70% | inhibition at 1 µM [20]: ≥ 70% | inhibition at 1 µM [21]: ≥ 70% | inhibition at 1 µM [22]: ≥ 70% | inhibition at 1 µM [23]: ≥ 70% | inhibition at 1 µM [24]: ≥ 70% | inhibition at 1 µM [25]: ≥ 70% | inhibition at 1 µM [26]: ≥ 70% | inhibition at 1 µM [27]: ≥ 70% | inhibition at 1 µM [28]: ≥ 70% | inhibition at 1 µM [29]: ≥ 70% | inhibition at 1 µM [30]: ≥ 70%
